The assay concerns INS-1E cytokine-induced apoptosis, JC-1 mitochondrial potential, 48 h. Kind of assay: INS-1E mitochondrial potential loss inhibitors – cell-based, JC-1 fluorescence, dry powder, set 2, dose response (AID 488867).

Active and inactive are the calls of the source.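 How the source made its calls: active means a rising curve with AC50 no higher than ten times the top valid dose of that compound; inconclusive means flat curve between 30 and 70 percent, or failed fit; inactive means the rest.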 Some results are limits rather than exact numbers.

`COc1ccc(S(=O)(=O)N(C)C[C@H]2Oc3c(NC(=O)Nc4cccc5ccccc45)cccc3C(=O)N([C@@H](C)CO)C[C@@H]2C)cc1`: the AC50 is > 26 µM (inactive).

In the case of `Cc1ccc(S(=O)(=O)N(C)C[C@@H]2Oc3c(NC(=O)Nc4ccccc4)cccc3C(=O)N([C@@H](C)CO)C[C@H]2C)cc1`, the AC50 is > 26 µM (inactive).

(Values after PubChem BioAssay AID488867 (Broad Institute, 2010).)
